In PMC6919601, “Identification of Plasmodium dipeptidyl aminopeptidase allosteric inhibitors by high throughput screening” (PLoS ONE, 2019):

Biological target: T1, DPAP1 (Plasmodium falciparum, UniProt Q8IIJ9)
T1 sequence (Q8IIJ9 370-599 limits assumed): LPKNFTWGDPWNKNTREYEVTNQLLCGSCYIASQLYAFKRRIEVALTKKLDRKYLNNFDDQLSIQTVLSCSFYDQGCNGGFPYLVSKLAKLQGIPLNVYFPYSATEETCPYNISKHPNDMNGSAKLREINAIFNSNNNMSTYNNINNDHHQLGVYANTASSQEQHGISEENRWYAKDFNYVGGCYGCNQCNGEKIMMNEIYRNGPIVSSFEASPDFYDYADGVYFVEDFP
T1 sequence (Q8IIJ9 28-209 limits assumed): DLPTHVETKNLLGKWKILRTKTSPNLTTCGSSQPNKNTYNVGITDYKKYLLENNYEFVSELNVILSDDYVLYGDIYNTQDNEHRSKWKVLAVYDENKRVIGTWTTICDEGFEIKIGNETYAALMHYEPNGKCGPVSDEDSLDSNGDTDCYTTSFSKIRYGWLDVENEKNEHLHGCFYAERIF
T1 sequence (Q8IIJ9 600-700 limits assumed): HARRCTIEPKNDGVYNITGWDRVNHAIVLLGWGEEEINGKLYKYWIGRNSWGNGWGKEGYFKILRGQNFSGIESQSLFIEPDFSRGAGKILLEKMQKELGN
Assay: biochemical
Type: biochemical
Conditions: for DPAP Primary hit (Hit = 1): 10 μM HTS, 0 not defined; for inhibition at 10 µM: 10 μM compound, parasite lysates, (PR)2Rho, 30 min end-point, read-out: DPAP1 % Inhibition @ 10 uM

SMILES | DPAP Primary hit (Hit = 1) | inhibition at 10 µM
N#CC1=C2SCN(C3CCCCC3)CN2C(=O)CC1c1ccccc1F (stereo not drawn) [SMDC170132, Fc1ccccc1C2CC(=O)N3CN(CSC3=C2C#N)C4CCCCC4] | 0 | 38%
COc1ccc(C2CC(=O)N3CN(C(C)c4ccccc4)CSC3=C2C#N)cc1OC (stereo not drawn) [SMDC178770, COc1ccc(cc1OC)C2CC(=O)N3CN(CSC3=C2C#N)C(C)c4ccccc4] | 0 | 28%
CC(c1ccccc1)N1CSC2=C(C#N)C(c3cccs3)CC(=O)N2C1 (stereo not drawn) [SMDC178833, CC(N1CSC2=C(C#N)C(CC(=O)N2C1)c3cccs3)c4ccccc4] | 1 | 68%
COc1ccc(Br)cc1C1CC(=O)N2CN(C)CSC2=C1C#N (stereo not drawn) [SMDC170145, COc1ccc(Br)cc1C2CC(=O)N3CN(C)CSC3=C2C#N] | 1 | 59%
COc1ccc(OC)c(C2CC(=O)N3CN(Cc4ccco4)CSC3=C2C#N)c1 (stereo not drawn) [SMDC170133, COc1ccc(OC)c(c1)C2CC(=O)N3CN(Cc4occc4)CSC3=C2C#N] | 0 | 7%
CN1CSC2=C(C#N)C(c3ccccc3)CC(=O)N2C1 (stereo not drawn) [SMDC170114, CN1CSC2=C(C#N)C(CC(=O)N2C1)c3ccccc3] | 0 | 33%
COc1ccc(C2CC(=O)N3CN(Cc4ccccc4)CSC3=C2C#N)c(OC)c1 (stereo not drawn) [SMDC170154, COc1ccc(C2CC(=O)N3CN(Cc4ccccc4)CSC3=C2C#N)c(OC)c1] | 0 | 32%
CCc1ccc(C2CC(=O)N3CN(Cc4ccccc4)CSC3=C2C#N)cc1 (stereo not drawn) [SMDC170113, CCc1ccc(cc1)C2CC(=O)N3CN(Cc4ccccc4)CSC3=C2C#N] | 0 | 39%
N#CC1=C2SCN(Cc3cccnc3)CN2C(=O)CC1c1ccc(F)cc1 (stereo not drawn) [SMDC178852, Fc1ccc(cc1)C2CC(=O)N3CN(Cc4cccnc4)CSC3=C2C#N] | 1 | 55%
CCCC[C@H](NC(=O)[C@@H](NC(=O)c1cccc(CNC(=O)OC(C)(C)C)c1)[C@@H](C)CC)C(=O)C[N+](=O)[O-] [SMDC279823, CCCC[C@H](NC(=O)[C@@H](NC(=O)c1cccc(CNC(=O)OC(C)(C)C)c1)[C@@H](C)CC)C(=O)C[N+](=O)[O-]] | – | -0.778%
CC(C)CCN1CSC2=C(C#N)C(c3ccc(Cl)cc3)CC(=O)N2C1 (stereo not drawn) [SMDC178791, CC(C)CCN1CSC2=C(C#N)C(CC(=O)N2C1)c3ccc(Cl)cc3] | 1 | 55%
COc1ccc2ccccc2c1C1CC(=O)N2CN(Cc3ccco3)CSC2=C1C#N (stereo not drawn) [SMDC170165, COc1ccc2ccccc2c1C3CC(=O)N4CN(Cc5occc5)CSC4=C3C#N] | 0 | 31%
COc1ccc(CN2CSC3=C(C#N)C(c4cccs4)CC(=O)N3C2)cc1 (stereo not drawn) [SMDC178823, COc1ccc(CN2CSC3=C(C#N)C(CC(=O)N3C2)c4cccs4)cc1] | 1 | 51%
COc1ccc2ccccc2c1C1CC(=O)N2CN(C)CSC2=C1C#N (stereo not drawn) [SMDC170175, COc1ccc2ccccc2c1C3CC(=O)N4CN(C)CSC4=C3C#N] | 0 | 37%
N#CC1=C2SCN(C3CCCC3)CN2C(=O)CC1c1cccs1 (stereo not drawn) [SMDC178882, O=C1CC(C(=C2SCN(CN12)C3CCCC3)C#N)c4cccs4] | 0 | 48%
CC(C)C[C@H](NC(=O)OCc1ccccc1)C(=O)NC1CCOC1O (stereo partly drawn) [SMDC279746, CC(C)C[C@H](NC(=O)OCc1ccccc1)C(=O)NC2CCOC2O] | – | 5.05%
CCOc1ccc(C2CC(=O)N3CN(Cc4ccco4)CSC3=C2C#N)cc1 (stereo not drawn) [SMDC170142, CCOc1ccc(cc1)C2CC(=O)N3CN(Cc4occc4)CSC3=C2C#N] | 0 | 43%
N#CC1=C2SCN(Cc3ccco3)CN2C(=O)CC1c1ccc(Cl)cc1 (stereo not drawn) [SMDC170081, Clc1ccc(cc1)C2CC(=O)N3CN(Cc4occc4)CSC3=C2C#N] | 0 | 42%
Cc1ccccc1C1CC(=O)N2CN(C3CCCCC3)CSC2=C1C#N (stereo not drawn) [SMDC170112, Cc1ccccc1C2CC(=O)N3CN(CSC3=C2C#N)C4CCCCC4] | 0 | 24%
COc1cccc(C2CC(=O)N3CN(Cc4ccco4)CSC3=C2C#N)c1OC (stereo not drawn) [SMDC170134, COc1cccc(C2CC(=O)N3CN(Cc4occc4)CSC3=C2C#N)c1OC] | 0 | 19%
COc1cc(C2CC(=O)N3CN(C)CSC3=C2C#N)cc(OC)c1OC (stereo not drawn) [SMDC170174, COc1cc(cc(OC)c1OC)C2CC(=O)N3CN(C)CSC3=C2C#N] | 0 | 4%

SMILES | DPAP Primary hit (Hit = 1) | inhibition at 10 µM
COc1ccc(C2CC(=O)N3CN(CCCc4ccccc4)CSC3=C2C#N)cc1OC (stereo not drawn) [SMDC178760, COc1ccc(cc1OC)C2CC(=O)N3CN(CCCc4ccccc4)CSC3=C2C#N] | 0 | 31%
CC(c1ccccc1)N1CSC2=C(C#N)C(c3ccc(Cl)cc3)CC(=O)N2C1 (stereo not drawn) [SMDC178781, CC(N1CSC2=C(C#N)C(CC(=O)N2C1)c3ccc(Cl)cc3)c4ccccc4] | 1 | 73%
N#CC1=C2SCN(Cc3ccccc3)CN2C(=O)CC1c1cccs1 (stereo not drawn) [SMDC170105, O=C1CC(C(=C2SCN(Cc3ccccc3)CN12)C#N)c4cccs4] | 0 | 41%
N#CC1=C2SCN(CCc3ccccc3)CN2C(=O)CC1c1ccc(F)cc1 (stereo not drawn) [SMDC178872, Fc1ccc(cc1)C2CC(=O)N3CN(CCc4ccccc4)CSC3=C2C#N] | 1 | 52%
CCc1ccc(C2CC(=O)N3CN(Cc4ccco4)CSC3=C2C#N)cc1 (stereo not drawn) [SMDC170172, CCc1ccc(cc1)C2CC(=O)N3CN(Cc4occc4)CSC3=C2C#N] | 0 | 34%
COc1ccc(C2CC(=O)N3CN(Cc4ccccc4)CSC3=C2C#N)cc1OC (stereo not drawn) [SMDC170071, COc1ccc(cc1OC)C2CC(=O)N3CN(Cc4ccccc4)CSC3=C2C#N] | 0 | 7%
COc1cc(C2CC(=O)N3CN(C4CCCCC4)CSC3=C2C#N)cc(OC)c1OC (stereo not drawn) [SMDC170164, COc1cc(cc(OC)c1OC)C2CC(=O)N3CN(CSC3=C2C#N)C4CCCCC4] | 0 | 2%
CC(C)C[C@H](NC(=O)N1CCOCC1)C(=O)N[C@H](/C=C/S(=O)(=O)c1ccccc1)CCc1ccccc1 [SMDC279744, CC(C)C[C@H](NC(=O)N1CCOCC1)C(=O)N[C@@H](CCc2ccccc2)\C=C\S(=O)(=O)c3ccccc3] | – | 6.4%
COc1ccc2ccccc2c1C1CC(=O)N2CN(C3CCCCC3)CSC2=C1C#N (stereo not drawn) [SMDC170116, COc1ccc2ccccc2c1C3CC(=O)N4CN(CSC4=C3C#N)C5CCCCC5] | 0 | 27%
COc1ccc(C2CC(=O)N3CN(Cc4cccnc4)CSC3=C2C#N)cc1 (stereo not drawn) [SMDC178811, COc1ccc(cc1)C2CC(=O)N3CN(Cc4cccnc4)CSC3=C2C#N] | 0 | 46%
Cc1ccc(C2CC(=O)N3CN(C4CCCCC4)CSC3=C2C#N)cc1 (stereo not drawn) [SMDC170101, Cc1ccc(cc1)C2CC(=O)N3CN(CSC3=C2C#N)C4CCCCC4] | 0 | 26%
CN1CSC2=C(C#N)C(c3cccc(OCc4ccccc4)c3)CC(=O)N2C1 (stereo not drawn) [SMDC170126, CN1CSC2=C(C#N)C(CC(=O)N2C1)c3cccc(OCc4ccccc4)c3] | 1 | 71%
CC[C@H](C)[C@H](NC(=O)c1cccc(CN)c1)C(=O)N[C@@H](CCc1ccccc1)C(=O)COC [SMDC279824, CC[C@H](C)[C@H](NC(=O)c1cccc(CN)c1)C(=O)N[C@@H](CCc2ccccc2)C(=O)COC] | – | 8%
CCOc1ccc(C2CC(=O)N3CN(Cc4cccnc4)CSC3=C2C#N)cc1 (stereo not drawn) [SMDC178821, CCOc1ccc(cc1)C2CC(=O)N3CN(Cc4cccnc4)CSC3=C2C#N] | 1 | 56%
COc1cc(C2CC(=O)N3CN(Cc4ccco4)CSC3=C2C#N)ccc1O (stereo not drawn) [SMDC170153, COc1cc(ccc1O)C2CC(=O)N3CN(Cc4occc4)CSC3=C2C#N] | 0 | 18%
CCOc1cc(C2CC(=O)N3CN(Cc4ccccc4)CSC3=C2C#N)ccc1O (stereo not drawn) [SMDC170173, CCOc1cc(ccc1O)C2CC(=O)N3CN(Cc4ccccc4)CSC3=C2C#N] | 0 | 20%
Cc1ccc(C2CC(=O)N3CN(C(C)c4ccccc4)CSC3=C2C#N)cc1 (stereo not drawn) [SMDC178820, CC(N1CSC2=C(C#N)C(CC(=O)N2C1)c3ccc(C)cc3)c4ccccc4] | 0 | 11%
N#CC1=C2SCN(Cc3ccco3)CN2C(=O)CC1c1cccc2ccccc12 (stereo not drawn) [SMDC170176, O=C1CC(C(=C2SCN(Cc3occc3)CN12)C#N)c4cccc5ccccc45] | 0 | 46%
N#CC1=C2SCN(Cc3ccccc3)CN2C(=O)CC1c1ccc(Cl)cc1 (stereo not drawn) [SMDC170091, Clc1ccc(cc1)C2CC(=O)N3CN(Cc4ccccc4)CSC3=C2C#N] | 0 | 42%
COc1ccc(Br)cc1C1CC(=O)N2CN(Cc3ccco3)CSC2=C1C#N (stereo not drawn) [SMDC170125, COc1ccc(Br)cc1C2CC(=O)N3CN(Cc4occc4)CSC3=C2C#N] | 1 | 61%
